Test results taken from patent publication US11739100B2, “2,3-dihydro-1h-imidazo{1,2-a}pyrimidin-5-one and this 1,2,3,4-tetrahydropyrimido{1,2-a}pyrimidin-6-one derivatives comprising a substituted morpholine, preparation thereof and pharmaceutical use thereof” (SANOFI, priority 2012, dated 2023).

Target: T1, recombinant Vps34 (Homo sapiens, UniProt Q8NEB9)
T1 construct: purchased Invitrogen PV5126
Assay: Phosphorylation of phosphatidylinositol (PI) by Vps34 in vitro, ADP detected by TR-FRET (HTRF Transcreener ADP)
Assay type: biochemical
Details: 10 μM ATP, 55 μg/ml PI, approximately 3 nM Vps34, 1 hour at ambient temperature; absolute IC50, mean of two independent experiments; read-out: IC50 activity range

T1 sequence (Q8NEB9 whole entry): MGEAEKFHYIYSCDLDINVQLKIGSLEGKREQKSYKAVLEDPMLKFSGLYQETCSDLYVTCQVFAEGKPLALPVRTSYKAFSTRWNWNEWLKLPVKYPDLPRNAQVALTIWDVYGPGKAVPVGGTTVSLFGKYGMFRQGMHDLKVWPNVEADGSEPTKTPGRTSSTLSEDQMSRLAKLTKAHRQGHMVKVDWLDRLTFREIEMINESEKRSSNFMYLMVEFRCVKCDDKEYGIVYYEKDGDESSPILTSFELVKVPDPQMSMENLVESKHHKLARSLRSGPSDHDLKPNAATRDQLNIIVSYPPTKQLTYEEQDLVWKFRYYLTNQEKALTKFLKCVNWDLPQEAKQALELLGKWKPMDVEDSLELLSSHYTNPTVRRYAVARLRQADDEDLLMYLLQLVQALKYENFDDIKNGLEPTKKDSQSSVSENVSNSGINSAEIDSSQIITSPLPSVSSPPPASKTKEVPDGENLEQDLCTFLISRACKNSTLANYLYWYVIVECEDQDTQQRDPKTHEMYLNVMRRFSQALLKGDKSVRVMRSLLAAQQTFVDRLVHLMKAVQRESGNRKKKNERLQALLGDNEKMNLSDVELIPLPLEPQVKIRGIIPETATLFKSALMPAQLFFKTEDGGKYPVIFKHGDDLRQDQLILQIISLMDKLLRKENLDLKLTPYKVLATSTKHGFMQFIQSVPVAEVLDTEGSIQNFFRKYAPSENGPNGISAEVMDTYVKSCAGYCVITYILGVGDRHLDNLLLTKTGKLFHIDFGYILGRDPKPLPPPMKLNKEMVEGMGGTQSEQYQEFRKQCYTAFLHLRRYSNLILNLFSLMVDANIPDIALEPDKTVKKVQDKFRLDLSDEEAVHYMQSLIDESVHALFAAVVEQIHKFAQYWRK

C[C@@H]1COCCN1c1nc2n(c(=O)c1F)CC[C@@H](C(F)(F)F)N2CC(=O)c1ccccn1 [Example 38, (S)-3-Fluoro-2-((R)-3-methylmorpholin-4-yl)-9-(2-oxo-2-pyridin-2-ylethyl)-8-trifluoromethyl-6,7,8,9-tetrahydro-pyrimido[1,2-a]-pyrimidin-4-one]
IC50: < 10 nM

COc1cc(N2c3nc(N4CCOC[C@H]4C)c(F)c(=O)n3CC[C@H]2C(F)(F)F)ccn1 [Example 40, (S)-3-Fluoro-9-(2-methoxypyridin-4-yl)-2-((R)-3-Methyl-morpholin-4-yl)-8-trifluoromethyl-6,7,8,9-tetrahydro-pyrimido[1,2-a]-pyrimidin-4-one]
IC50: < 10 nM

C[C@@H]1COCCN1c1nc2n(c(=O)c1F)CC[C@@H](C(F)(F)F)N2Cc1ccnc(Cl)c1 [Example 41, (S)-9-(2-Chloro-pyridin-4-ylmethyl)-3-fluoro-2-((R)-3-methyl-morpholin-4-yl)-8-trifluoromethyl-6,7,8,9-tetrahydro-pyrimido[1,2-a]-pyrimidin-4-one]
IC50: < 10 nM

C[C@@H]1COCCN1c1nc2n(c(=O)c1F)CC[C@@H](C(F)(F)F)N2Cc1ncco1 [Example 42, (S)-3-Fluoro-2-((R)-3-methylmorpholin-4-yl)-9-oxazol-2-ylmethyl-8-trifluoromethyl-6,7,8,9-tetrahydro-pyrimido[1,2-a]-pyrimidin-4-one]
IC50: < 10 nM

C[C@@H]1COCCN1c1nc2n(c(=O)c1F)CC[C@@H](C(F)(F)F)N2c1ccc(C2CC2)nc1 [Example 43, (S)-9-(6-Cyclopropyl-pyridin-3-yl)-3-fluoro-2-((R)-3-methyl-morpholin-4-yl)-8-trifluoromethyl-6,7,8,9-tetrahydro-pyrimido[1,2-a]-pyrimidin-4-one]
IC50: < 10 nM

C[C@@H]1COCCN1c1nc2n(c(=O)c1F)CC[C@@H](C(F)(F)F)N2Cc1cocn1 [Example 44, (S)-3-Fluoro-2-((R)-3-methylmorpholin-4-yl)-9-oxazol-4-ylmethyl-8-trifluoromethyl-6,7,8,9-tetrahydro-pyrimido[1,2-a]-pyrimidin-4-one]
IC50: < 10 nM

C[C@@H]1COCCN1c1nc2n(c(=O)c1F)CC[C@@H](C(F)(F)F)N2Cc1ccno1 [Example 46, (S)-3-Fluoro-9-isoxazol-5-ylmethyl-2-((R)-3-methyl-morpholin-4-yl)-8-trifluoromethyl-6,7,8,9-tetrahydro-pyrimido[1,2-a]-pyrimidin-4-one]
IC50: < 10 nM

C[C@@H]1COCCN1c1nc2n(c(=O)c1F)CC[C@@H](C(F)(F)F)N2c1cccnc1 [Example 47, (S)-3-Fluoro-2-((R)-3-methylmorpholin-4-yl)-9-pyridin-3-yl-8-trifluoromethyl-6,7,8,9-tetrahydro-pyrimido[1,2-a]-pyrimidin-4-one]
IC50: 10 to 100 nM

C[C@@H]1COCCN1c1nc2n(c(=O)c1F)CC[C@@H](C(F)(F)F)N2CCOCC(F)(F)F [Example 48, (S)-3-Fluoro-2-((R)-3-methylmorpholin-4-yl)-9-[2-(2,2,2-trifluoro-ethoxy)ethyl]-8-trifluoromethyl-6,7,8,9-tetrahydro-pyrimido[1,2-a]-pyrimidin-4-one]
IC50: < 10 nM

C[C@@H]1COCCN1c1nc2n(c(=O)c1F)CC[C@@H](C(F)(F)F)N2CC(C)(C)O [Example 49, (S)-3-Fluoro-9-(2-hydroxy-2-methyl-propyl)-2-((R)-3-methylmorpholin-4-yl)-8-trifluoromethyl-6,7,8,9-tetrahydro-pyrimido[1,2-a]-pyrimidin-4-one]
IC50: < 10 nM

C[C@@H]1COCCN1c1nc2n(c(=O)c1F)CC[C@@H](C(F)(F)F)N2CC(=O)c1cccnc1 [Example 50, (S)-3-Fluoro-2-((R)-3-methylmorpholin-4-yl)-9-(2-oxo-2-pyridin-3-ylethyl)-8-trifluoromethyl-6,7,8,9-tetrahydro-pyrimido[1,2-a]-pyrimidin-4-one]
IC50: < 10 nM

C[C@@H]1COCCN1c1nc2n(c(=O)c1F)CC[C@@H](C(F)(F)F)N2Cc1ccc(F)nc1 [Example 51, (S)-3-Fluoro-9-(6-fluoropyridin-3-yl-methyl)-2-((R)-3-methylmorpholin-4-yl)-8-trifluoromethyl-6,7,8,9-tetrahydro-pyrimido[1,2-a]-pyrimidin-4-one]
IC50: < 10 nM

C[C@@H]1COCCN1c1nc2n(c(=O)c1F)CC[C@@H](C(F)(F)F)N2Cc1ccc(Cl)nc1 [Example 52, (S)-9-(6-Chloro-pyridin-3-ylmethyl)-3-fluoro-2-((R)-3-methyl-morpholin-4-yl)-8-trifluoromethyl-6,7,8,9-tetrahydro-pyrimido[1,2-a]-pyrimidin-4-one]
IC50: < 10 nM

C[C@@H]1COCCN1c1nc2n(c(=O)c1F)CC[C@@H](C(F)(F)F)N2c1ccc(C(F)F)nc1 [Example 53, (S)-9-(6-Difluoromethylpyridin-3-yl)-3-fluoro-2-((R)-3-methylmorpholin-4-yl)-8-trifluoromethyl-6,7,8,9-tetrahydro-pyrimido[1,2-a]-pyrimidin-4-one]
IC50: < 10 nM

C[C@@H]1COCCN1c1nc2n(c(=O)c1F)CC[C@@H](C(F)(F)F)N2Cc1noc(C(C)(C)C)n1 [Example 54, (S)-9-(5-tert-Butyl-[1,2,4]oxadiazol-3-yl-methyl)-3-fluoro-2-((R)-3-methyl-morpholin-4-yl)-8-trifluoromethyl-6,7,8,9-tetrahydro-pyrimido[1,2-a]-pyrimidin-4-one]
IC50: < 10 nM

C[C@@H]1COCCN1c1nc2n(c(=O)c1F)CC[C@@H](C(F)(F)F)N2c1ccncc1 [Example 55, (S)-3-Fluoro-2-((R)-3-methylmorpholin-4-yl)-9-pyridin-4-yl-8-trifluoromethyl-6,7,8,9-tetrahydro-pyrimido[1,2-a]-pyrimidin-4-one]
IC50: < 10 nM

C[C@@H]1COCCN1c1nc2n(c(=O)c1F)CC[C@@H](C(F)(F)F)N2Cc1ccc(F)cn1 [Example 56, (S)-3-Fluoro-9-(5-fluoropyridin-2-yl-methyl)-2-((R)-3-methylmorpholin-4-yl)-8-trifluoromethyl-6,7,8,9-tetrahydro-pyrimido[1,2-a]-pyrimidin-4-one]
IC50: < 10 nM

C[C@@H]1COCCN1c1nc2n(c(=O)c1F)CC[C@@H](C(F)(F)F)N2Cc1cncc(F)c1 [Example 57, (S)-3-Fluoro-9-(5-fluoropyridin-3-yl-methyl)-2-((R)-3-methylmorpholin-4-yl)-8-trifluoromethyl-6,7,8,9-tetrahydro-pyrimido[1,2-a]-pyrimidin-4-one]
IC50: < 10 nM

C[C@@H]1COCCN1c1nc2n(c(=O)c1F)CC[C@@H](C(F)(F)F)N2Cc1cccnc1F [Example 58, (S)-3-Fluoro-9-(2-fluoropyridin-3-yl-methyl)-2-((R)-3-methylmorpholin-4-yl)-8-trifluoromethyl-6,7,8,9-tetrahydro-pyrimido[1,2-a]-pyrimidin-4-one]
IC50: < 10 nM

C[C@@H]1COCCN1c1nc2n(c(=O)c1F)CC[C@@H](C(F)(F)F)N2CC(=O)c1ncccc1F [Example 59, (S)-3-Fluoro-9-[2-(3-fluoropyridin-2-yl)-2-oxoethyl]-2-((R)-3-methylmorpholin-4-yl)-8-trifluoromethyl-6,7,8,9-tetrahydro-pyrimido[1,2-a]-pyrimidin-4-one]
IC50: < 10 nM

C[C@@H]1COCCN1c1cc(=O)n2c(n1)N(CC(=O)c1ncccc1F)[C@H](C(F)(F)F)CC2 [Example 60, (S)-9-[2-(3-Fluoro-pyridin-2-yl)-2-oxo-ethyl]-2-((R)-3-methyl-morpholin-4-yl)-8-trifluoromethyl-6,7,8,9-tetrahydro-pyrimido[1,2-a]-pyrimidin-4-one]
IC50: < 10 nM

COc1cc(C(=O)CN2c3nc(N4CCOC[C@H]4C)cc(=O)n3CC[C@H]2C(F)(F)F)ccn1 [Example 61, (S)-9-[2-(2-Methoxy-pyridin-4-yl)-2-oxo-ethyl]-2-((R)-3-methyl-morpholin-4-yl)-8-trifluoromethyl-6,7,8,9-tetrahydro-pyrimido[1,2-a]-pyrimidin-4-one]
IC50: < 10 nM

Cc1nocc1CN1c2nc(N3CCOC[C@H]3C)c(F)c(=O)n2CC[C@H]1C(F)(F)F [Example 62, (S)-3-Fluoro-9-(3-methylisoxazol-4-yl-methyl)-2-((R)-3-methylmorpholin-4-yl)-8-trifluoromethyl-6,7,8,9-tetrahydro-pyrimido[1,2-a]-pyrimidin-4-one]
IC50: < 10 nM

C[C@@H]1COCCN1c1cc(=O)n2c(n1)N(CC(=O)c1cccc(F)n1)[C@H](C(F)(F)F)CC2 [Example 63, (S)-9-[2-(6-Fluoro-pyridin-2-yl)-2-oxo-ethyl]-2-((R)-3-methyl-morpholin-4-yl)-8-trifluoromethyl-6,7,8,9-tetrahydro-pyrimido[1,2-a]-pyrimidin-4-one]
IC50: < 10 nM

C[C@@H]1COCCN1c1cc(=O)n2c(n1)N(Cc1cn3ccccc3n1)[C@H](C(F)(F)F)CC2 [Example 64, (S)-9-Imidazo[1,2-a]-pyridin-2-ylmethyl-2-((R)-3-methyl-morpholin-4-yl)-8-trifluoromethyl-6,7,8,9-tetrahydro-pyrimido[1,2-a]-pyrimidin-4-one]
IC50: > 100 nM

C[C@@H]1COCCN1c1cc(=O)n2c(n1)N(Cc1cc(Cl)ccn1)[C@H](C(F)(F)F)CC2 [Example 65, (S)-9-(4-Chloro-pyridin-2-ylmethyl)-2-((R)-3-methyl-mopholin-4-yl)-8-trifluoromethyl-6,7,8,9-tetrahydro-pyrimido[1,2-a]-pyrimidin-4-one]
IC50: < 10 nM

C[C@@H]1COCCN1c1cc(=O)n2c(n1)N(Cc1ccncc1Cl)[C@H](C(F)(F)F)CC2 [Example 66, (S)-9-(3-Chloro-pyridin-4-ylmethyl)-2-((R)-3-methyl-mopholin-4-yl)-8-trifluoromethyl-6,7,8,9-tetrahydro-pyrimido[1,2-a]-pyrimidin-4-one]
IC50: < 10 nM

C[C@@H]1COCCN1c1cc(=O)n2c(n1)N(CC(=O)Cc1ccccn1)[C@H](C(F)(F)F)CC2 [Example 67, (S)-2-((R)-3-Methyl-morpholin-4-yl)-9-(2-oxo-3-pyridin-2-yl-propyl)-8-trifluoromethyl-6,7,8,9-tetrahydro-pyrimido[1,2-a]-pyrimidin-4-one]
IC50: < 10 nM
